Laboratory results published in patent US20090028871A1, “NOVEL USE OF LIGANDS SPECIFIC TO FEX-2 POLYPEPTIDE” (KYUNGPOOK NATIONAL UNIVERSITY INDUSTRY-ACADEMIC COOPERATION …, priority 2004, published 2009).

Key:
L/FEX-2 cells = test: Inhibition of binding and phagocytosis of aged red blood cells by L/FEX-2 cells; assay type: cell-based, mouse; details: L/FEX-2 cells pre-cultured with 100 μM, 37° C., 30 minutes; relative to control group taken as 100%
Experimental: Whether or not aged red blood cells are bound and phagocytosed by the L/FEX-2 cells prepared in Example <1-2> and L/Mock cells as a control group was examined. For this purpose, normal red blood cells obtained from normal adult volunteers were first diluted with PBS to a hematocrit concentration of 20% and cultured at 37° C. for 4 days, thus preparing aged red blood cells. Then, each of L/FEX-2 cells, L/Mock cells and normal L cells was cultured to a confluent 6-well plate comprising Dulbecco's modified Eagle's medium (DMEM). To the culture media, aged red blood cells and normal red blood cells were added to a hematocrit concentration of 1% and cultured at 37° C. for one hour. Then, the cells were washed five times with PBS, and observed for the binding of the aged red blood cells and normal red blood cells using an optical microscope. The number of red blood cells bound to 100 randomly selected L/FEX-2 cells was counted and averaged. To analyze phagocytosis, the cells were washed with PBS and treated with water for 10 seconds to completely dissolve undigested cells. Then, the L/FEX-2 cells were stained using the Diff quick staining kit (IMEM Ins., San Marcos, Calif., USA), and five sites from the stained cells were randomly selected and counted for the number of cells which have phagocytosed red blood cells phagocytosed. Binding and phagocytosis indexes (%) were expressed as the percentages of cells having red blood cells bound and phagocytosed thereby, relative to the entire L/FEX-2 cells.
To the L/FEX-2 cells prepared in Example <1-2>, 100 μg/ml of the human FEX-2 monoclonal antibody (5G3) was added and the mixture was pre-cultured at 37° C. for one hour. As a control group, mouse immunoglobulin (IgG1) in place of the FEX-2 monoclonal antibody was used. […] After completion of the culture, the binding and phagocytosis of the aged red blood cells were analyzed in the same manner as in Example <4-1>. In this regard, the binding and phagocytosis of the aged red blood cells were expressed as inhibition percentage relative to the case of L/FEX-2 cells, which have not been pre-cultured with the antibody.
Whether the binding and phagocytosis of red blood cells by the L/FEX-2 cells are inhibited, it was examined by pre-culturing the L/FEX-2 cells with each of the PS liposome, PI liposome, PG liposome, PE liposome, PA liposome and PC liposome prepared in Example <5-3> and then additionally culturing the pre-cultured cells with aged red blood cells. […] After completion of the culture, the binding and phagocytosis of the aged red blood cells were analyzed in the same manner as in. […] The binding and phagocytosis of aged red blood cells were expressed as values relative to the control group taken as 100%. […]

[1] = system: premyelomonocytic leukemic U937 cells; test: Induction of apoptosis in U937 cells (annexin V flow cytometry); assay type: cell-based, human; details: 100 ng/ml, 4 hours
Experimental: For this purpose, the apoptosis of human leukemic Jurkat T cells (Korean cell line bank) and premyelomonocytic leukemic U937 cells (Korean cell line bank) was induced. The cells were cultured in an RPMI 1640 medium comprising 10% fetal bovine serum. The induction of apoptosis of the Jurkat T cells was performed according to a known method by inoculating the Jurkat T cells in a medium comprising 100 ng/ml of an anti-Fas antibody (CH-11) and culturing the inoculated cells for 6 hours (Oka, K. et al., Proc Natl Acad Sci USA, 95:9535-40, 1998). Also, the induction of apoptosis of the U937 cells was performed according to a known method by inoculating the U937 cells in a medium comprising 100 ng/ml of ectoposide and culturing the inoculated cells for 4 hours (Bave, U., et. al., J Immunol 165:3519-26, 2000). The degree of apoptosis of the cells was determined by measuring the amount of phosphatidylserine expressed on the cell surface, by flow cytometry in the same manner as in Example <5-1> using the annexin V apoptosis detection kit (Santacruz) according to the manufacturer's instruction.

Compound | binding of aged red blood cells (L/FEX-2 cells) | phagocytosis of aged red blood cells (L/FEX-2 cells) | apoptosis of the cells (phosphatidylserine on cell surface, annexin V) [1]
N[C@H](COP(=O)(O)O)C(=O)O [PDS, phospho-D-serine] | no significant effect | no significant effect | –
N[C@@H](COP(=O)(O)O)C(=O)O [PLS, phospho-L-serine] | significant inhibition | significant inhibition | –
COc1cc([C@@H]2c3cc4c(cc3[C@@H](O[C@@H]3O[C@@H]5CO[C@@H](C)O[C@H]5[C@H](O)[C@H]3O)[C@H]3COC(=O)[C@H]23)OCO4)cc(OC)c1O [ectoposide] | – | – | induced
